Columns and labels:
hPSC-ECs (GFP+ cells) = assay: Electric cell-substrate impedance sensing (ECIS) of transendothelial barrier integrity; type: cell-based, human; details: for effect on EC barrier in co-application with VEGFA (functional barrier assays): under both conditions, FIG. 5
Method: Electric cell-substrate impedance sensing. TBI was detected in real time using the ECIS® Z-theta system (Applied Biophysics, McAlister G C, Nusinow D P, Jedrychowski M P, Wuhr M, Huttlin E L, Erickson B K, et al. Analytical chemistry. 2014; 86(14):7150-8.) using 96 well array plates (96widf, Applied Biophysics) at 250 Hz frequency. Plates were coated with 100 μL of fibronectin (25 μg/mL; for 30 min at RT), fibronectin was replaced by complete media and electrodes were stabilized for 1 h on the system. Afterwards, media was removed and hPSC-ECs were seeded (10,000 cells per well). Cells were left for 2 days to reach full confluency and then treated with compounds with or without VEGFA (50 ng/mL). All the treatments were performed in triplicates.

TGFBR2 [1] = molecular target: T1, TGFBR2 (Homo sapiens, UniProt P37173); assay: Kinome scan (scanMAX, competitive protein kinase binding) TGFBR2; details: 1 μM; data not shown
T1 construct: purchased DiscoveRx
T1 sequence (P37173 23-567): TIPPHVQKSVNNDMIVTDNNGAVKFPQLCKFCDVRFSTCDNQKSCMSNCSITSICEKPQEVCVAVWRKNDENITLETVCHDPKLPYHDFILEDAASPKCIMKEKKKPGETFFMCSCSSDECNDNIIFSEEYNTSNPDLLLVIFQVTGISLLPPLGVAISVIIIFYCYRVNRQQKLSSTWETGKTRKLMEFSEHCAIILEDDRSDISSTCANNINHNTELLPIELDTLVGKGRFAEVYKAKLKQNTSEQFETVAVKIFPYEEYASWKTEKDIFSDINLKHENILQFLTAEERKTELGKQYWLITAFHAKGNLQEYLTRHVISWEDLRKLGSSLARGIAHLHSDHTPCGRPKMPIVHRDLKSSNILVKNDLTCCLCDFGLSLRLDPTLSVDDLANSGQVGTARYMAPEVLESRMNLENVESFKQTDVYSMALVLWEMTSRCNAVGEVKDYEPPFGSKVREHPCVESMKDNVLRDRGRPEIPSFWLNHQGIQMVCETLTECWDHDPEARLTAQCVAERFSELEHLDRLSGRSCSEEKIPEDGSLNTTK
Method: (§1) Competitive protein kinase binding assays. Kinome scan (468 kinases) was performed by scanMAX (DiscoveRx) at 1 μM. Kinome scan procedure has been followed as described in (Bemas M J, Cardoso F L, Daley S K, Weinand M E, Campos A R, Ferreira A J, et al. Nature protocols. 2010; 5(7):1265-72.). Kd determination for ACVR1B, TGFRB1, TGFBR2 and KDR has been done in duplicates with 11-point 3-fold serial dilution starting from 30 μM (DiscoveRx). All the compounds were dissolved in DMSO. Binding constants (Kds) were calculated with a standard dose-response curve using the Hill equation and the The Hill Slope was set to −1. Curves were fitted using a non-linear least square fit with the Levenberg-Marquardt algorithm.

BMPR1B = molecular target: T2, BMPR1B (Homo sapiens, UniProt O00238); assay: Kinome scan (scanMAX, competitive protein kinase binding) BMPR1B; details: 1 μM; data not shown
T2 construct: purchased DiscoveRx
T2 sequence (O00238 14-502): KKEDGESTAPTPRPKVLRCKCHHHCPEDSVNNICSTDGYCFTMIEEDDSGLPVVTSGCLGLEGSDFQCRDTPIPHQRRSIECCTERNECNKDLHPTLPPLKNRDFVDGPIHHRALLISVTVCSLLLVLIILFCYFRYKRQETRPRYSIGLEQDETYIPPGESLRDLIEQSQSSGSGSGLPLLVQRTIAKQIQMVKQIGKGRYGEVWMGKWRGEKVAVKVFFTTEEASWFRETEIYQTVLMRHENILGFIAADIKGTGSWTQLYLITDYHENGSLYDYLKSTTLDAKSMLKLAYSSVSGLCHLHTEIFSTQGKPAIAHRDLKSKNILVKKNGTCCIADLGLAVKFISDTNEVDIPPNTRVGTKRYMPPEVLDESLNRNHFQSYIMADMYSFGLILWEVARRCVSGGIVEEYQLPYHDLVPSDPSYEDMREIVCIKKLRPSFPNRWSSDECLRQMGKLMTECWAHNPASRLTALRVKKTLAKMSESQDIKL
Method: as §1

TGFBR2 [2] = molecular target: T1, TGFBR2; assay: Kd determination (DiscoveRx) TGFBR2; type: binding; details: data not shown
Method: as §1

hPSC-EC = tested on: hPSC-EC
Method: RNA isolation. RNA isolation from FACS sorted or cultured cells was performed using RNeasy micro kit or RNeasy mini kit (both Qiagen) or automated Maxwell Total RNA purification kit (Promega), all procedures included DNAse I digestion. Procedures were followed as described in the kit protocols.
RNA-sequencing and analysis. Total RNA from the FACS sorted or cell cultured treated samples was subjected to oligo (dT) capture and enrichment, and the resulting mRNA fraction was used to construct complementary DNA libraries. Transcriptome sequencing (RNA-seq) was performed on the Illumina HiSeq platform using the standard protocol (TruSeq Stranded Total RNA Library, Illumina) that generated approximately 30 million reads of 50 base-pair per sample. FACS sorted experiments for GFP+ and GFP− cells were performed using 6 replicates each from 2 different clones. The RNA-seq reads were then mapped to the human genome (NCBI build 37) by using GSNAP (Wu T D, Nacu S. Bioinformatics (Oxford, England). 2010; 26(7):873-81.). Comparison was done between 12 samples of GFP+ and GFP− samples from two clones. TGFBR2 inhibitor treated hPSC-EC samples were mapped to the human genome (hg19/Refseq) using STAR (Dobin A, Davis Calif., Schlesinger F, Drenkow J, Zaleski C, Jha S, et al. Bioinformatics (Oxford, England). 2013; 29(1):15-21.) and counting was performed using union mode of HtSeq (Anders S, Pyl P T, Huber W. Bioinformatics (Oxford, England). 2015; 31(2):166-9.). Differential expression was performed using Deseq2 (Dobin A, Davis C A, Schlesinger F, Drenkow J, Zaleski C, Jha S, et al. Bioinformatics (Oxford, England). 2013; 29(1):15-21.). Gene set enrichment analysis was performed using GSEA (Subramanian A, Tamayo P, Mootha V K, Mukherjee S, Ebert B L, Gillette M A, et al. Proceedings of the National Academy of Sciences of the United States of America. 2005; 102(43):15545-50.) using Hallmarks MsigDb database (Liberzon A, Birger C, Thorvaldsdottir H, Ghandi M, Mesirov J P, Tamayo P. Cell systems. 2015; 1(6):417-25.) using weighted p2 analysis, following default conditions with ignoring gene sets smaller than 15 and larger than 5000 genes.

[3] = tested on: CLDN5 transcriptional reporter (CLDN5-P2A-GFP) in hPSC-EC; assay: CLDN5-GFP reporter, percentage of GFP+ cells by FACS; type: cell-based, human
Method: Fluorescence activated cell sorting and analysis. Human PSC-EC were dissociated from plates by Accutase (StemCell Technologies) and filtered before sorting with 30 μm filters (Miltenyi Biotec). Dissociated cells were kept in full media during sorting and sorted in cooled collection tubes with complete EC media supplemented with 20% FBS and 25 mM HEPES. Sorting was performed with BD FACS ARIA III (BD Biosciences) using 4-way purity precision mode. FACS plots were generated by Flowjo_V10 software. In case of RNA-seq minimum of 100,000 cells was sorted. After sorting, cells were spun down (610 g, 10 min) and lysed in 650 μL RLT lysis buffer (Qiagen)+β-mercaptoethanol (1%) and subsequently vortexed for 1 min at room temperature and snap frozen. In case of mass spectrometry analysis minimum of 10^6 cells was sorted, cells were washed with PBS^−(Life Technologies), spun down (110 g, 3 min), PBS was removed and cell pellets snap frozen.
Compound library screening with fluorescence activated cell readout. Compounds were plated in replicate plates, and each plate had DMSO treated controls. ECs (10,000 cells per well) were seeded on fibronectin coated plates in full media. Cells were treated 2 days after seeding and the FACS measurement using MACS quant analyzer 10 (Miltenyi biotec) was performed. Screen data was analyzed in Flowjo_V10 software.

[4] = RNA-seq 8 h and 48 h after treatment

O=C(NC1CCOCC1)c1ccc(-c2cc(-c3c[nH]nc3-c3ccccn3)ccn2)cc1 [GW788388, 4-[4-[3-(2-Pyridinyl)-1H-pyrazol-4-yl]-2-pyridinyl]-N-(tetrahydro-2H-pyran-4-yl)-benzamide]
effect on EC barrier in co-application with VEGFA (functional barrier assays) (hPSC-ECs (GFP+ cells); VEGFA 50 ng/mL): prevented barrier disruption with VEGFA | inhibitory activity on TGFBR2, large kinase panel (TGFBR2 [1]): strong inhibitory activity | inhibition activity on BMPR1B, large kinase panel (BMPR1B): weaker inhibition activity | Kd (inhibitory activities) for TGFBR2 (TGFBR2 [2]): nanomolar inhibitory activities

Cc1cccc(-c2n[nH]cc2-c2ccc3ncccc3n2)n1 [Repsox, 2-[3-(6-Methyl-2-pyridinyl)-1H-pyrazol-4-yl]-1,5-naphthyridine]
rescue of TBI, impedance real time measurement (hPSC-ECs (GFP+ cells); 10 μM, co-treatment with 50 ng/mL VEGFA, GFP+ cells): rescues the loss-of TBI induced by VEGFA treatment | effect on EC barrier in co-application with VEGFA (functional barrier assays) (hPSC-ECs (GFP+ cells); VEGFA 50 ng/mL): strong EC barrier promoting effect | inhibitory activity on TGFBR2, large kinase panel (TGFBR2 [1]): strong inhibitory activity | inhibition activity on BMPR1B, large kinase panel (BMPR1B): weaker inhibition activity | Kd (inhibitory activities) for TGFBR2 (TGFBR2 [2]): nanomolar inhibitory activities | BMP signaling (ENG, LRG1 and BMPR2) (hPSC-EC; [4]): potently inhibited | CLDN5 expression (hPSC-EC; [4]): strong upregulation | GSK3ß expression (hPSC-EC; [4]): downregulation | PLVAP expression (hPSC-EC; [4]): downregulation | RHOB expression (hPSC-EC; [4]): Downregulation | SMAD6 (TGFß antagonist) expression (hPSC-EC; [4]): inducing | expression of KDR (VEGFR2) and PECAM1 (CD31) (hPSC-EC; [4]): did not change | expression of Wnt target genes (AXIN2, APCDD1, TNFRSF19) and receptors for Wnt FZD4 and LRP1 (hPSC-EC; [4]): upregulation | expression of antagonists of BMP signaling (BMPER, GREM2 and GDF6) (hPSC-EC; [4]): Most striking upregulation | expression of inflammation genes (NFATC2, JAK1, JAK3 and ICAM1) (hPSC-EC; [4]): downregulate | expression of other tight junctions or regulators of tight junctions (MARVELD3, GJA4, GJA5, IFITM3) (hPSC-EC; [4]): Upregulation | TGFß pathway regulation (hPSC-EC; RNA-seq / GSEA Hallmarks MsigDB): most potent compound | expression of SOX17 and KLF4 (hPSC-EC; RNA-seq after treatment): Induction | VEGFR1 (FLT1) expression (hPSC-EC; RNA-seq, data not shown): upregulated | expression of angiogenesis related genes (ESM1, ANGPTL4 and PPARGC1A) (hPSC-EC; RNA-seq, data not shown): most potent compound in downregulating

NC(=O)c1ccc(-c2nc(-c3ccc4c(c3)OCO4)c(-c3ccccn3)[nH]2)cc1 [SB431542, 4-(4-Benzo[1,3]dioxol-5-yl-5-pyridin-2-yl-1H-imidazol-2-yl)-benzamide]
effect on EC barrier in co-application with VEGFA (functional barrier assays) (hPSC-ECs (GFP+ cells); VEGFA 50 ng/mL): no effect

Cc1cccc(-c2[nH]c(C(C)(C)C)nc2-c2ccc3c(c2)OCO3)n1 [SB505124]
effect on EC barrier in co-application with VEGFA (functional barrier assays) (hPSC-ECs (GFP+ cells); VEGFA 50 ng/mL): partial effect

CCN(CC)CCNC(=O)c1c(C)[nH]c(/C=C2\C(=O)Nc3ccc(F)cc32)c1C [SU11248]
% of GFP+ cells ([3]; 5 μM SU11248 for 2 days, FACS): 99% | change in GFP+ (reporter gene positive) cells upon treatment ([3]; FACS 2 days after treatment, VEGFA 50 ng/mL): increase of reporter gene positive cells | resistance to barrier breakdown by VEGFA, ECIS (hPSC-ECs (GFP+ cells); cells treated with 5 μM SU11248, VEGFA 50 ng/mL): resistant to barrier breakdown by VEGFA

Source: patent US20210247385A1, “METHODS FOR ASSESSING TRANSENDOTHELIAL BARRIER INTEGRITY” (Hoffmann-La Roche Inc., priority 2018, published 2021)
